Measurements published in patent US6743446B2, “Methods for stabilizing biologically active agents encapsulated in biodegradable controlled-release polymers” (The Ohio State University Research Foundation, priority 1999, dated 2004).
“And” between values parts separate entries of the source, which are not always exact repeats. Equal entries are not always repeated. Structures can show the parent of a compound that is named as a salt. Where two headings read alike, the source gives them in different places.

What was measured:
[1] = pH of the release medium during incubation of polymer devices; type: physicochemical; conditions: 3% BSA/PLGA50/50 (0.20 dl/g) microspheres with 3% base, after 35 days
From the text: This effect was confirmed by changes in pH in the release medium and alteration of the PLGA degradation rate.
The pH of the release medium was monitored by a Corning 430 pH meter (Corning Inc., NY) at each sampling interval.

[2] = reference (23); cited from earlier work
[3] = pH measurement of saturated basic salts in water; type: physicochemical; conditions: excess basic salt suspended in water, 37° C., 7 days
Experimental: The suspension was then incubated at 37° C. for 7 days. The pH of the supernatant was determined with a Corning 430 pH meter (Corning Inc., NY).

[4] = VCR and VBL stability and release in PLGA microspheres by HPLC; type: physicochemical
Experimental: All other reagents and solvents were of analytical grade or purer and purchased from commercial suppliers. Microspheres Preparation Microspheres were prepared by a standard oil-in-oil emulsion-solvent extraction method (17). […] The resulting solution or suspension was added drop-wise to 25 ml of oil (95% cottonseed oil and 5% Span 85 emulsifier) stirred at 500 rpm and room temperature. After 2.5 h of microsphere hardening. 40 ml of petroleum ether (bp: 50 to 100° C.) were added to the emulsion to extract CAN. The emulsion was stirred for additional 15 min, the particles were collected by filtration, and washed 3 times with petroleum ether. The hardened microspheres were flash-frozen with liquid nitrogen and lyophilized with a Labconco Freezone 6 system for 1 day.
The HPLC system consisted of the following: a 510 pump, a 717 Plus autosampler, and a 486 UV detector (waters, Milford, Mass.). […] The mobile phase was composed of aqueous solution of sodium phosphate (10 mM) and methanol 40:60 (v/v) (pH 7.0). For UV detection, the wavelength was set to 298 nm.
Drug release from microspheres was carried out in PBS (127 mM NaCl, 3 mM KCl, 8 mM Na2HPO4, 1 mM KH2PO4, pH 7.4) containing Tween 80 (0.02% w/w/) (PBST) at 37° C. under perfect sink conditions. […] Microspheres were weighed and dissolved in a 50% (v/v) ACN water solution. The precipitated polymer and salts were spun down by brief centrifugation. An aliquot of the supernatant containing drug was removed and analyzed by HPLC.

[5] = pH of saturated basic salt suspension after addition of 1 N HCl; type: physicochemical; conditions: acid added to the saturated suspension with excess salt, 37° C., 3 days
From the text: The difference of the neutralization effect from the salts is also reflected in the different water contents of their PLGA devices.

[6] = aqueous solution; cited from earlier work

| pH of the release medium [1] | pH of saturated solution [3] | drug degraded to the basic product during microsphere preparation ([4]; VCR PLGA microspheres with co-encapsulated base) | pH after addition of 100 μl of 1 N HCl [5] | stability of encapsulated drug ([4]; PLGA (50% D,L lactide content) microspheres) | drug remaining intact ([4]; VCR PLGA microspheres with ZnCO3, after 3 weeks) | drug remaining intact ([4]; VCR PLGA microspheres with ZnCO3, after 4 weeks) | drug remained in its native form ([4]; VCR in PLGA microspheres without base, 14 days incubation at 37° C.) | Structure (SMILES) | pH of saturated solution [2] | pH of maximum stability [6] |
| --- | --- | --- | --- | --- | --- | --- | --- | --- | --- | --- |
| < 4.5 | 9.97 and 9.76 | 12% | 8.99 |  |  |  |  | [Mg+2].[OH-].[OH-] [Mg(OH)2] | 9.8 |  |
|  |  |  |  | becomes unstable | 97% | 92% | 23% | CC[C@]1(O)C[C@H]2CN(CCc3c([nH]c4ccccc34)[C@@](C(=O)OC)(c3cc4c(cc3OC)N(C=O)[C@H]3[C@@](O)(C(=O)OC)[C@H](OC(C)=O)[C@]5(CC)C=CCN6CC[C@]43[C@@H]65)C2)C1 [VCR, Vincristine sulfate] |  | ~4.5 |
